In brackets after ≈: the same amount, converted by molar mass.
Key:
Trichophiton gypseum = assay: Assessment of the fungicide effect, serial dilutions in microplates with neutralizer; format: cell-based; conditions: for Concentration that destroys the fungi (fungicide effect): trichophyton genus, exposure time 24 h
Experimental: (§1) Strains of fungi of Candida genus (Candida albicans strain 15) that are resistant towards disinfecting agents and trichophyton (Trichophiton gypseum), which were cultivated in Sabouraud's agar, were used as test microorganisms.
(§2) Forms A and B were dissolved in sterile distilled water.
(§3) The method of serial dilutions in microplates was used in the experiment. The dissolved substance was titrated in the culture medium, then the test microorganisms were introduced and after certain intervals of disinfection time the neutralizer was added, namely 0.1% solution of citric acid. After the exposure during 1-2 minutes the contents of each well were plated to solid culture media.
(§4) The following concentrations of the substance were studied: 0.1-0.05-0.025-0.0125% of the drug for action duration of 1, 3, 5, 10, 20, minutes and 1.0-1.5-3.0 and 24 h.
(§5) All inoculations were incubated at an optimum temperature during 24 hours.
(§6) The fungicide effect was assessed according to the presence or absence of growing microorganisms in the culture media.

[1] = system: Candida albicans strain 15; assay: as above; format: cell-based; conditions: for Concentration that destroys the fungi (fungicide effect): Candida genus, exposure time 24 h
Experimental: as §1, §2, §3, §4, §5, §6

A. alternata = assay: Biocidal effect on spores of fungi that cause plant diseases and damage agricultural products; format: cell-based, Alternaria alternata; conditions: fungi spores (a mixture)
Experimental: (§7) Various fungi were used in the experiment—vegetative forms and spores of Alternaria alternata, Fusarium moniliforme, Botrytis spp. that cause diseases of plants and damage agricultural products. Biocidal properties were tested on spores of fungi cultures with optical density of the inoculated dose p E=0.310.

Botrytis spp = assay: as above; format: cell-based; conditions: fungi spores (a mixture)
Experimental: as §7

C. albicans = assay: Minimum inhibiting concentration towards unicellular fungi, serial dilution; format: cell-based; conditions: Sabouraud's agar
Experimental: (§8) Discovering the Minimum Inhibiting Concentration of the Inventive Substance (Forms A and B) Towards Unicellular Fungi
(§9) Fungi were grown in Sabouraud's agar. The effect of the substance was assessed by means of the serial dilution method.

C. glabrata = assay: as above; format: cell-based; conditions: Sabouraud's agar
Experimental: as §8, §9

C. parapsilosis = assay: as above; format: cell-based; conditions: Sabouraud's agar
Experimental: as §8, §9

C. krusei = assay: as above; format: cell-based; conditions: Sabouraud's agar
Experimental: as §8, §9

S. cerevisiae = assay: as above; format: cell-based; conditions: Sabouraud's agar
Experimental: as §8, §9

[2] = system: Penicillium ochro-chloron; assay: Biocidal effect on spores of fungi that damage paper, wood and dyes; format: cell-based; conditions: fungi spores (a mixture)
Experimental: (§10) Various fungi were used in the experiment—vegetative forms and spores of Aspergillis niger, Penicillium ochro-chloron that damage paper, wood and dyes thereof.
(§11) Biocidal properties were tested on spores of fungi cultures with optical density of the inoculated dose p E=0.310.

Aspergillis niger = assay: as above; format: cell-based; conditions: fungi spores (a mixture)
Experimental: as §10, §11

F. moniliforme = assay: Biocidal effect on spores of fungi that cause plant diseases and damage agricultural products; format: cell-based, Fusarium moniliforme; conditions: fungi spores (a mixture)
Experimental: as §7

Aspergillus = assay: Minimum inhibiting concentration towards multicellular fungi; format: cell-based
Source text: (§12) Discovering the Minimum Inhibiting Concentration of the Inventive Agent Towards Multicellular Fungi

Mucor = assay: as above; format: cell-based
Source text: as §12

[3] = read-out: Minimum inhibiting (biocidal) concentration (MIC) of the substance

Row | Compound | Concentration that destroys the fungi (fungicide effect) (Trichophiton gypseum) | Concentration that destroys the fungi (fungicide effect) [1] | Minimum inhibiting (biocidal) concentration of the substance (A. alternata) | Minimum inhibiting (biocidal) concentration of the substance (Botrytis spp) | Minimum inhibiting concentration (C. albicans) | Minimum inhibiting concentration (C. glabrata) | Minimum inhibiting concentration (C. parapsilosis) | Minimum inhibiting concentration (C. krusei) | Minimum inhibiting concentration (S. cerevisiae) | Minimum inhibiting (biocidal) concentration (MIC) of the substance [2] | Minimum inhibiting (biocidal) concentration (MIC) of the substance (Aspergillis niger) | Minimum inhibiting (biocidal) concentration of the substance (F. moniliforme) | Minimum inhibiting concentration (MIC) (Aspergillus) | Minimum inhibiting concentration (MIC) (Mucor) | other results
1 | 2,4-dioxo-5-(2-hydroxy-3,5-dichlorobenzylidiene)amino-1,3-pyrimidine salt | 0.1% | 0.025% | 4.0 µg/mL | 8.0 µg/mL | 1 µg/mL | 0.125 µg/mL | 0.250 µg/mL | 1 µg/mL | 0.125 µg/mL | 8.0 µg/mL | 2.0 µg/mL | 8.0 µg/mL | 2 µg/mL | 1 µg/mL | –
2 | OC(Cn1cncn1)(Cn1cncn1)c1ccc(F)cc1F [Fluconazole, 2-(2,4-difluorophenyl)-1,3-bis(1N-1,2,4-triazol-1-yl)-2-propanol, reference compound] | – | – | 32 µg/mL | 64 µg/mL | – | – | – | – | – | – | – | 64 µg/mL | – | – | Fungicide effect (presence or absence of growth) (Trichophiton gypseum; trichophyton, same conditions as the inventive substance): did not destroy the microbes; Fungicide effect (presence or absence of growth) ([1]; Candida, same conditions as the inventive substance): did not destroy the microbes; MIC (C. albicans; Candida albicans): 2 µg/mL (≈ 6.53 µM); MIC (C. glabrata; Nakaseomyces glabratus): 64 µg/mL (≈ 209 µM); MIC (C. parapsilosis; Lodderomyces parapsilosis): 0.25 µg/mL (≈ 0.816 µM); MIC (C. krusei; Pichia kudriavzevii): 32 µg/mL (≈ 104 µM); MIC (S. cerevisiae; Saccharomyces cerevisiae): 0.125 µg/mL (≈ 0.408 µM); MIC [2, 3]: 64 µg/mL (≈ 209 µM); MIC (Aspergillis niger; [3]): 64 µg/mL (≈ 209 µM); MIC (Aspergillus): 64 µg/mL (≈ 209 µM); MIC (Mucor): 64 µg/mL (≈ 209 µM)
3 | Dimer of sodium salt of 2,4-dioxo-5-(2-hydroxy-3,5-dichlorobenzylidiene)amino-1,3-pyrimidine | 0.1% | 0.025% | 2.0 µg/mL | 4.0 µg/mL | 1 µg/mL | 0.250 µg/mL | 0.125 µg/mL | 1 µg/mL | 0.125 µg/mL | 4.0 µg/mL | 1.0 µg/mL | 4.0 µg/mL | 2 µg/mL | 1 µg/mL | –

Source: patent US8987277B2, “Fungicide” (priority 2010, dated 2015)
